What was measured:
[1] = system: Rabbit with Experimental Ocular Hypertension; test: Ocular blood flow (colored microspheres) in rabbit with experimental ocular hypertension; assay type: in vivo, New Zealand white rabbits; conditions: 1% topical, 50 μl
Experimental: Rabbits were anesthetized with 35 mg/kg ketamine and 5 mg/kg Balanzine (10% xylazine) by intramuscular injection. Half of the initial dose was given every one hour thereafter. The left ventricle was cannulated through the right carotid artery for injection of colored microspheres and the femoral artery was cannulated for collection of blood samples. The left eye was treated with one drop of proparacaine hydrochloride ophthalmic solution (Bausch & Lomb, Inc., Tampa, Fla., USA). The needle was inserted directly into the anterior chamber of the left eye, which was connected to the 40 mmHg saline manometer. The ocular hypertensive model reduced the ocular blood flow to approximately one third of the normal valued. […] The ocular blood flow was measured by colored microspheres at 0, 30, 60 and 120 minutes after treatment with COMPOUND I or vehicle. […] The blood sample was collected in a heparinized tube and the volume was recorded. […]
The details of sample processing and microspheres counting were provided by E-Z Trac (Los Angeles, Calif., USA). […] The number of microspheres was counted by the hemocytometer under the microscope. […] The protocol thereafter was the same as that used to process the blood samples, and the microspheres were counted.
The blood flow of each tissue at a certain time point was calculated according to the following formula: Qm=(Cm×Qt)/Cr. […]

[2] = Hypoxia-induced injury in HUVECs (MTT); assay type: cell-based; conditions: human, 1% O2, read-out: decrease of viability in hypoxic condition
Experimental: (§1) MTT assay was used to measure the viability of ARPE-19 cells and HUVECs. 2×10^5 ARPE-19 cells or 5×10^4 HUVECs were seeded in 96-well plates ([…]) and allowed to grow overnight. Negative control was prepared by adding 100 μl medium without cells. The cells were then treated with fresh medium with COMPOUND I (0.03, 0.1, 0.3, 1, 3 and 10 μg/ml) and/or oxidants (NaIO3, H2O2, t-BHP and NaN3) for 12, 24, or 72 hours (200 μl/well). The vehicle control group was treated with vehicle. 20 μl MTT (5 mg/ml) was added to wells, and incubated for another 4 h. After incubation, the medium was discarded and 100 μl DMSO was added to solubilize formazan produced from MTT by the viable cells. Absorbance was measured at 570 nm using a microplate reader (Bio-Rad Laboratories, Inc., CA). Cells viability was calculated according to the following formula: Viability of cells (%)=(absorbance in tested sample−absorbance in negative control)/(absorbance in vehicle control−absorbance in negative control)×100%.
Cells were allowed to attach overnight, and then exposed to COMPOUND I or vehicle under hypoxic condition for 72 h. Hypoxic conditions (1% O2, 5% CO2 and 94% N2) were maintained by using a temperature and humidity controlled environmental C-chamber by O2 and CO2 controllers (Proox Model 110 and Pro CO2 model 120, Biospherix Ltd., Redfield, N.Y., USA) with N2 and CO2 gas sources.

HUVECs [3] = test: NaN3-induced injury in HUVECs (MTT); assay type: cell-based, human; conditions: 72 h
Experimental: as §1

HUVECs [4] = test: H2O2-induced injury in HUVECs (MTT); assay type: cell-based, human; conditions: 10 μg/ml, 24 h
Experimental: as §1

GFAP = GFAP levels in retina, Western Blot, streptozotocin-induced diabetic retinopathy; assay type: in vivo, Sprague-Dawley female rats
Experimental: After a 16-hour fasting, Sprague-Dawley female rats weighing 200-220 g received a single 60 mg/kg intraperitoneal injection of Streptozotocin (STZ; Sigma-Aldrich, St. Louis, Md.) in 10 mM sodium citrate buffer (pH 4.5; Sigma-Aldrich, St. Louis, Md.). Control rats were fasted and received the buffer solution alone. Rats with blood glucose levels higher than 375 mg/dL 7 days after receiving STZ were considered to be diabetic. Diabetic rats were treated with 1% COMPOUND I, 0.5% COMPOUND I or vehicle eye drops 3 time a day for 6 weeks.
After rats were sacrificed as described in last section, eyes were enucleated and bisected. Retinas were peeled from eyecups and immediately homogenized with 0.3 ml ice-cold lysis buffer ([…]; Sigma-Aldrich, St. Louis, Mo.), including 1 μl proteinase inhibitor cocktail ([…]; Sigma-Aldrich, St. Louis, Mo.). The insoluble material was removed by centrifugation at 12,000 g for 20 minutes. Final protein concentrations were determined using a protein assay kit (BCA, Santa Cruz Biotechnology, Santa Cruz, Calif.) according to manufacturer's specifications. The homogenate (80 μg) were separated by NuPAGE Bis-Tris Mini Gels (Invitrogen Life Technologies, Grand Island, N.Y.) and transferred to nitrocellulose membranes by iBlot Gel transfer Device (Invitrogen Life Technologies, Grand Island, N.Y.). The nitrocellulose membranes were treated by BenchPro 4100 Card Processing Station (Invitrogen Life Technologies, Grand Island, N.Y.) according to the instruction of WesternBreeze® Chromogenic Kit-Anti-Rabbit (Invitrogen Life Technologies, Grand Island, N.Y.). The primary antibodies used were anti-GFAP (1:200, Santa Cruz Biotechnology, Santa Cruz, Calif.) and glycealdehyde-3-phosphate dehydrogenase (GAPDH) (1:100), respectively. The Anti-rabbit IgG, AP-linked antibody was used as a second antibody. For quantitative evaluation of the western blot studies, the nitrocellulose membranes were scanned and the optical densities were quantified with analysis software (Pro-gel Analyzer software, Media Cybernetics, Rockville, Md.).

COc1ccc(COc2c(/C=C/C(=O)NO)ccc(OC)c2CC=C(C)C)cc1 [COMPOUND I]
blood flow in ciliary body and choroid ([1]; 30 minutes and 60 minutes after instillation): markedly increased
blood flow in all tissues (iris, ciliary body, retina, choroid) ([1]; 120 minutes after instillation): significantly increased
cytotoxicity at 72 h, 10 μg/ml [2]: 98%
enhancement of NaN3-induced injury (HUVECs [3]; 10 µg/ml, 3 mM NaN3): 72%
effect on NaN3-induced injury (HUVECs [3]; From 0.03 μg/ml): didn't affect
enhancement of NaN3-induced injury (HUVECs [3]; […], 0.3 mM NaN3): 65%
enhancement of NaN3-induced injury (HUVECs [3]; […], 1 mM NaN3): 52%
enhancement of H2O2-induced injury (HUVECs [4]; 200 μM H2O2): 41%
enhancement of H2O2-induced injury (HUVECs [4]; 400 μM H2O2): 10%
GFAP level (Western Blot), DR animals as 100% (GFAP; 0.5% eye drops tid 6 weeks): 70%
expression of GFAP proteins in retina vs diabetic control, in words (GFAP; 1% and 0.5% tid. for 6 weeks): significantly suppressed
GFAP level (Western Blot), DR rats as 100% (GFAP; 1.0% eye drops tid 6 weeks): 46%

Source: patent US11045435B2, “Methods for treating ocular diseases” (NATUREWISE BIOTECH & MEDICALS CORPORATION, priority 2016, dated 2021)
